Measured values reported in patent US4639450A, “Polyprenylcarboxylic acid morpholides and pharmaceutical compositions” (Eisai Co., Ltd., priority 1979, dated 1987).

Columns and labels:
[1] = tested on: liver dysfunction (hepatitis) induced by D-galactosamine; test: Experiment I: effect on the liver dysfunction (hepatitis) induced by D-galactosamine, test compound administered into the abdominal cavity; assay type: in vivo, Rats of the SD series; settings: D-galactosamine hydrochloride 250 mg/Kg
Method: The effect on the liver dysfunction (hepatitis) induced by D-galactosamine by administration into the abdominal cavity was examined.
(§1) Rats of the SD series having a body weight of about 250 g were used as test animals. D-Galactosamine hydrochloride (250 mg/Kg each time) and the test compound (50 mg/Kg each time) were administered into the abdominal cavity according to the schedule described below. After termination of the experiment, blood was collected from the test animals, and the GOT value, GPT value and alkali phosphatase value, which are indicators of the degree of the liver dysfunction, were measured.
(§2) The test compound was suspended in a 5% aqueous solution of gum arabic and was administered in the form of the suspension. D-Galactosamine hydrochloride was dissolved in distilled water, the pH value of the solution was adjusted to 7 by potassium hydroxide and the resulting solution was administered. The test compound was administered to a group consisting of 9 rats, and in place of the test compound, a 5% aqueous solution of gum arabic free of the test compound was administered to a control group consisting of 14 rats. Neither the test compound nor D-galactosamine hydrochloride was administered to a normal group consisting of 9 rats.
(§3) Administration Schedule: [formula]

[2] = tested on: liver dysfunction (hepatitis) induced by D-galactosamine; test: Experiment II: effect on the liver dysfunction (hepatitis) induced by D-galactosamine, oral administration; assay type: in vivo, Rats of the SD series; settings: Tables 3 and 4, 400 mg/Kg each time, D-galactosamine hydrochloride 200 mg/Kg hypodermically; for GPT Value: normal 34.8 ± 1.9, control 395.7 ± 49.3; for Alkali Phosphatase Value: normal 49.3 ± 4.4, control 67.4 ± 2.9; for GOT Value: normal 129.4 ± 12.6, control 573.7 ± 59.1
Method: as §1, §2
The effect on the liver dysfunction (hepatitis) induced by D-galactosamine by oral administration was examined.
D-galactosamine hydrochloride (200 mg/Kg each time) was hypodermically administered, and the test compound (400 mg/Kg each time) was orally administered. The test compound-administered group consisted of 9 rats, the control group consisted of 14 rats, and the normal group consisted of 8 rats. The administration schedule was as follows.
as §3
Other test conditions were the same as in Experiment I.

[3] = tested on: rats of the Wistar series; settings: rat, in vivo, po, 4000 mg/kg
Method: The compounds C, D, I and M were separately suspended in 5% aqueous solutions of gum arabic and the test composition were orally administered to rats of the Wistar series at a dose of 4000 mg/Kg.

[4] = Table 2, 50 mg/Kg each time, normal 39.0 ± 2.4, control 992.3 ± 121.2
[5] = Table 2, 50 mg/Kg each time, normal 48.9 ± 4.7, control 125.7 ± 4.9
[6] = Table 2, 50 mg/Kg each time, normal 129.9 ± 10.1, control 1081.8 ± 90.3
[7] = Table 1, 50 mg/Kg each time, normal 32.3 ± 3.3, control 94.2 ± 6.9
[8] = Table 1, 50 mg/Kg each time, normal 33.1 ± 2.3, control 509 ± 94
[9] = Table 1, 50 mg/Kg each time, normal 127.0 ± 6.1, control 751 ± 130

Row | Compound | GPT Value [1, 4] | Alkali Phosphatase Value [1, 5] | GOT Value [1, 6] | GPT Value [2] | Alkali Phosphatase Value [2] | GOT Value [2] | Alkali Phosphatase Value [1, 7] | GPT Value [1, 8] | GOT Value [1, 9] | death of rats [3]
1 | CC(C)=CCCC(C)=CCCC(C)=CCCC(C)=CC(=O)N1CCN(CCO)CC1 [compound L, 1-(3,7,11,15-tetramethyl-2,6,10,14-hexadecatetraenoyl)-4-(2-hydroxyethyl)piperazine] | 138.1 ± 16.9 carmen unit | 42.8 ± 1.8 KA unit | 451.7 ± 37.9 carmen unit | – | – | – | – | – | – | –
2 | CC(C)=CCC/C(C)=C/CC/C(C)=C/CCC(C)CC(=O)N1CCOCC1 (stereo not shown) [compound D, 4-[(E,E)-3,7,11,15-tetramethyl-6,10,14-hexadecatrienoyl]morpholine] | – | – | – | 58.8 ± 5.5 carmen unit | 53.1 ± 5.6 KA unit | 84.8 ± 8.9 carmen unit | 28.5 ± 2.0 KA unit | 94 ± 39 carmen unit | 430 ± 58 carmen unit | None of the rats died
3 | CC(=CC(=O)N1CCOCC1)CCCC(C)CCCC(C)C (stereo not shown) [compound H, 4-(3,7,11-trimethyl-2-dodecaenoyl)morpholine] | 511.3 ± 173.7 carmen unit | 49.0 ± 1.9 KA unit | 732.1 ± 147.3 carmen unit | – | – | – | – | – | – | –
4 | CC(=CC(=O)N1CCOCC1)CCCC(C)CCCC(C)CCCC(C)C (stereo not shown) [compound I, 4-(3,7,11,15-tetramethyl-2-hexadecaenoyl)morpholine] | 135.3 ± 46.4 carmen unit | 35.4 ± 5.2 KA unit | 659.3 ± 72.5 carmen unit | 154.9 ± 21.5 carmen unit | 44.31 ± 3.1 KA unit | 284.9 ± 36.4 carmen unit | – | – | – | None of the rats died
5 | CC(C)=CCC/C(C)=C/CC/C(C)=C/CCC(C)CC(=O)N1CCN(CCO)CC1 (stereo not shown) [compound G, 1-[(E,E)-3,7,11,15-tetramethyl-6,10,14-hexadecatrienoyl]-4-(2-hydroxyethyl)piperazine] | – | – | – | – | – | – | 29.6 ± 2.3 KA unit | 84 ± 17 carmen unit | 414 ± 49 carmen unit | –
6 | CC(C)=CCC/C(C)=C/CC/C(C)=C/CCC(C)CC(N)=O (stereo not shown) [compound E, (E,E)-3,7,11,15-tetramethyl-6,10,14-hexadecatrienamide] | – | – | – | – | – | – | 32.1 ± 2.6 KA unit | 64 ± 15 carmen unit | 425 ± 24 carmen unit | –
7 | CC(C)=CCCC(C)=CCCC(C)=CCCC(C)=CC(N)=O [compound J, 3,7,11,15-tetramethyl-2,6,10,14-hexadecatetraenamide] | 314.5 ± 65.9 carmen unit | 49.9 ± 3.0 KA unit | 617.0 ± 50.5 carmen unit | – | – | – | – | – | – | –
8 | CC(C)=CCCC(C)=CCCC(C)=CCCC(C)=CC(=O)N(C)C [compound K, N,N-dimethyl-3,7,11,15-tetramethyl-2,6,10,14-hexadecatetraenamide] | 193.8 ± 38.1 carmen unit | 45.2 ± 1.8 KA unit | 586.0 ± 56.5 carmen unit | – | – | – | – | – | – | –
9 | CC(C)=CCCC(C)=CCCC(C)=CCCC(C)=CC(=O)N1CCOCC1 [compound M, 4-(3,7,11,15-tetramethyl-2,6,10,14-hexadecatetraenoyl)morpholine] | – | – | – | 58.9 ± 7.3 carmen unit | 59.4 ± 4.9 KA unit | 178.4 ± 10.3 carmen unit | – | – | – | None of the rats died
10 | CC(C)CCCC(C)CCCC(C)CC(=O)N1CCOCC1 (stereo not shown) [compound A, 4-(3,7,11-trimethyldodecanoyl)morpholine] | – | – | – | 62.1 ± 10.7 carmen unit | 64.1 ± 4.6 KA unit | 193.0 ± 18.5 carmen unit | 31.9 ± 1.8 KA unit | 46.8 ± 11 carmen unit | 257.4 ± 31 carmen unit | –
11 | CC(C)CCCC(C)CCCC(C)CCCC(C)CC(=O)N1CCOCC1 (stereo not shown) [compound C, 4-(3,7,11,15-tetramethylhexadecanoyl)morpholine] | – | – | – | 122.0 ± 16.1 carmen unit | 46.7 ± 4.0 KA unit | 231.1 ± 26.4 carmen unit | 23.5 ± 1.8 KA unit | 40 ± 13 carmen unit | 352 ± 34 carmen unit | None of the rats died
12 | CC(C)=CCC/C(C)=C/CCC(C)CC(=O)N1CCOCC1 (stereo not shown) [compound B, 4-[(E)-3,7,11-trimethyl-6,10-dodecadienoyl]morpholine] | – | – | – | 67.4 ± 7.3 carmen unit | 62.9 ± 4.9 KA unit | 233.3 ± 22.2 carmen unit | 40.2 ± 2.4 KA unit | 50.4 ± 16 carmen unit | 316 ± 27 carmen unit | –
13 | CC(C)=CCC/C(C)=C/CC/C(C)=C/CCC(C)CC(=O)N(C)C (stereo not shown) [compound F, (E,E)-N,N-dimethyl-3,7,11,15-tetramethyl-6,10,14-hexadecatrienamide] | – | – | – | – | – | – | 28.0 ± 2.4 KA unit | 90 ± 44 carmen unit | 400 ± 75 carmen unit | –
